From patent US20180207111A1, “IMMUNOTHERAPY FOR CASR-EXPRESSING CANCER (E.G. NEUROBLASTOMA)” (HOSPITAL SANT JOAN DE DEU, priority 2015, published 2018)

What was measured:
LA-N-1 xenografts = assay: Genome-wide expression analysis of xenografts, Affymetrix Human Gene Array 2.1 ST; type: in vivo
Description: Total RNA was isolated from 8 xenografts exposed to Cinacalcet (C) and 8 from the control group (V). These were the last 8 tumors excised in each group, so that analyzed xenografts were those exposed to the longest period of treatment (V5-V12 and C4-C11). Two different mRNA expression analyses were conducted: Genome-wide expression analysis by microarrays (Example 3) and by RT-qPCR (Example 4).
(§1) Genome-wide expression analyses were performed using Affymetrix Human and Mouse Gene Array 2.1 ST (Affymetrix, reference number 902136 for human gene array and 902120 for mouse gene array) as per manufacturer's protocol. Procedures to analyze results included: Quality control of the arrays (following this step, xenograft C6 was removed from further analyses); filtering and normalization; selection of differentially expressed genes; single comparison (treated versus control samples); list of differentially expressed genes ranked by significance; Volcano plots showing the most differentially expressed genes; heatmaps of the clustered expression profiles; and analysis of biological significance through enrichment analysis against the Gene Ontologies, KEGG (Kyoto Encyclopedia of Genes and Genomes) and Ingenuity pathways.
However, these differences of gene expression were not statistically significant, adjusted P-value >0.05 (Table 3). Nonetheless, in this first analysis, corresponding to heatmap on FIG. 3, it was apparent that a group of genes were specifically modulated in the three tumors exposed to Cinacalcet for the longest period of time. This was confirmed by a second genome-wide expression analysis that examined differentially expressed genes in these three specimens (C9-C11) compared to the 8 vehicle-treated tumors (V5-V12) (FIG. 4).

[1] = test system: normal surrounding tissues; assay: Genome-wide expression analysis of murine genes in xenograft RNAs, Affymetrix Mouse Gene Array 2.1 ST; type: in vivo
Description: as §1
In order to evaluate whether upregulation of CTAs was a tumor-specific effect or it was induced in normal surrounding tissues as well, a genome-wide expression analysis by means of microarrays was conducted using a chip to detect murine genes differentially expressed in the same RNAs analyzed in the human array.

LA-N-1 = assay: RT-qPCR mRNA expression in LA-N-1 neuroblastoma cells grown with Cinacalcet; type: cell-based, Homo sapiens; details: 1 μM Cinacalcet vs DMSO, up to 21 days
Description: Three neuroblastoma cell lines LA-N-1, SK-N-LP and SH-SY5Y were used for this purpose. […] No expression of the CaSR is detectable in SH-SY5Y either. Thus, SK-N-LP and SH-SY5Y were stably transfected with pCMV-CaSR-GFP or pCMV-GFP. All cell lines were grown in the presence of 1 μM Cinacalcet (Selleck Chemicals, S1260) or DMSO for 21 days in P100 plates. Morphology was assessed daily. Total RNA was isolated at days 1, 3, 5, 7, 10, 14 and 21. Several markers were analyzed by RT-qPCR using SYBRgreen and specific primers or Taqman technology and gene-specific Assays-on-Demand (Applied Biosystems) (Table 1).
These features reached maximal expression between days 7 and 14 (FIG. 1). […] Neuroblastoma cytodifferentiation is an indication of this tumor becoming more benign, less proliferative. […] Moreover, upregulation of these differentiation-associated genes and CTAs both in vitro and in vivo (see Examples 2-4) validates the proposed in vitro model (doses used, time of exposure, etc) as a good model to evaluate neuroblastoma response to treatment with Cinacalcet.

[2] = three longest-treated xenografts C9-C11 vs vehicle V5-V12, adjusted P 0.00986984
[3] = three longest-treated xenografts C9-C11 vs vehicle V5-V12, adjusted P 0.01746325
[4] = three longest-treated xenografts C9-C11 vs vehicle V5-V12, adjusted P 0.01874439
[5] = three longest-treated xenografts C9-C11 vs vehicle V5-V12, adjusted P 0.02269447
[6] = three longest-treated xenografts C9-C11 vs vehicle V5-V12, adjusted P 0.0249218
[7] = three longest-treated xenografts C9-C11 vs vehicle V5-V12, adjusted P 0.04520061
[8] = three longest-treated xenografts C9-C11 vs vehicle V5-V12, adjusted P 0.04907024
[9] = three longest-treated xenografts C9-C11 vs vehicle V5-V12, adjusted P 0.05146784
[10] = xenografts C4, C5, C7-C11 vs vehicle V5-V12, 10 mg/kg/day oral, adjusted P 0.35366385
[11] = xenografts C4, C5, C7-C11 vs vehicle V5-V12, 10 mg/kg/day oral, adjusted P 0.52209349
[12] = xenografts C4, C5, C7-C11 vs vehicle V5-V12, 10 mg/kg/day oral, adjusted P 0.61235652
[13] = Mus musculus genes in xenograft RNAs, Cinacalcet vs vehicle, adjusted P 0.80678117

C[C@@H](NCCCc1cccc(C(F)(F)F)c1)c1cccc2ccccc12 [Cinacalcet]
Log fold change, probe 17104825 (CXorf49//CXorf49B) (LA-N-1 xenografts; three longest-treated xenografts C9-C11 vs vehicle V5-V12, adjusted P 0.00358764): 1.857
Log fold change, probe 16695923 (FAM78B) (LA-N-1 xenografts; [2]): 1.543
Log fold change, probe 17070589 (CNBD1) (LA-N-1 xenografts; [2]): 1.801
Log fold change, probe 17103272 (SSX4B//SSX4) (LA-N-1 xenografts; [2]): 1.389
Log fold change, probe 17104821 (CXorf49//CXorf49B) (LA-N-1 xenografts; [2]): 2.714
Log fold change, probe 16972634 (LOC285500) (LA-N-1 xenografts; three longest-treated xenografts C9-C11 vs vehicle V5-V12, adjusted P 0.01361569): 1.359
Log fold change, probe 17103626 (GAGE12G//GAGE12F//GAGE12I//GAGE7//... GAGE family, Entrez 645073) (LA-N-1 xenografts; three longest-treated xenografts C9-C11 vs vehicle V5-V12, adjusted P 0.01682153): 2.202
Log fold change, probe 17103647 (GAGE2A//GAGE2C//GAGE2B//GAGE2D//... GAGE family, Entrez 729447) (LA-N-1 xenografts; [3]): 2.059
Log fold change, probe 17103679 (GAGE2A//GAGE2C//GAGE12G//GAGE12F//... GAGE family, Entrez 729447) (LA-N-1 xenografts; [3]): 2.03
Log fold change, probe 16837128 (PRKCA) (LA-N-1 xenografts; [4]): 1.165
Log fold change, probe 16926807 (CECR7) (LA-N-1 xenografts; [4]): 1.23
Log fold change, probe 17103653 (GAGE12C//GAGE12D//GAGE12E//GAGE12G//... GAGE family, Entrez 729422) (LA-N-1 xenografts; [4]): 2.183
Log fold change, probe 17103655 (GAGE12C//GAGE12D//GAGE12E//GAGE12H//... GAGE family, Entrez 729422) (LA-N-1 xenografts; [4]): 2.032
Log fold change, probe 17103673 (GAGE12G//GAGE12C//GAGE12D//GAGE12E//... GAGE family, Entrez 645073) (LA-N-1 xenografts; [4]): 1.962
Log fold change, probe 16982161 (PDLIM3) (LA-N-1 xenografts; [5]): 1.187
Log fold change, probe 16986694 (SPZ1) (LA-N-1 xenografts; [5]): 1.239
Log fold change, probe 17103614 (GAGE12J//GAGE2D//GAGE2E//GAGE8//... GAGE family, Entrez 729396) (LA-N-1 xenografts; [5]): 1.853
Log fold change, probe 17103620 (GAGE13//GAGE12D//GAGE12E//GAGE12B//... GAGE family, Entrez 645051) (LA-N-1 xenografts; [5]): 2.07
Log fold change, probe 17103690 (GAGE12H//GAGE12C//GAGE12D//GAGE12E//... GAGE family, Entrez 729442) (LA-N-1 xenografts; [5]): 1.931
Log fold change, probe 17110576 (SSX4//SSX4B) (LA-N-1 xenografts; [5]): 1.272
Log fold change, probe 16938527 (RBMS3) (LA-N-1 xenografts; three longest-treated xenografts C9-C11 vs vehicle V5-V12, adjusted P 0.02361429): 1.243
Log fold change, probe 16711753 (PROSER2-AS1) (LA-N-1 xenografts; [6]): 1.36
Log fold change, probe 16838249 (LOC100507351) (LA-N-1 xenografts; [6]): 1.078
Log fold change, probe 17111994 (RGAG4) (LA-N-1 xenografts; [6]): 1.076
Log fold change, probe 17113928 (TENM1) (LA-N-1 xenografts; three longest-treated xenografts C9-C11 vs vehicle V5-V12, adjusted P 0.03166044): 1.577
Log fold change, probe 16679142 (RYR2) (LA-N-1 xenografts; three longest-treated xenografts C9-C11 vs vehicle V5-V12, adjusted P 0.04211565): 1.356
Log fold change, probe 17043613 (LOC100505938) (LA-N-1 xenografts; three longest-treated xenografts C9-C11 vs vehicle V5-V12, adjusted P 0.04288827): 1.14
Log fold change, probe 16970118 (SYNPO2) (LA-N-1 xenografts; [7]): 1.722
Log fold change, probe 17115014 (GABRA3) (LA-N-1 xenografts; [7]): 1.248
Log fold change, probe 16732397 (POU2F3) (LA-N-1 xenografts; three longest-treated xenografts C9-C11 vs vehicle V5-V12, adjusted P 0.0462006): 1.148
Log fold change, probe 16752147 (NEUROD4) (LA-N-1 xenografts; [8]): 1.009
Log fold change, probe 16928510 (SEZ6L) (LA-N-1 xenografts; [8]): 1.17
Log fold change, probe 16812942 (NTRK3) (LA-N-1 xenografts; [9]): 1.186
Log fold change, probe 16920617 (CTCFL) (LA-N-1 xenografts; [9]): 1.866
Log fold change, probe 16837226 (SNORA38B) (LA-N-1 xenografts; [10]): 1.107
Log fold change, probe 16902703 (POTEF) (LA-N-1 xenografts; [10]): 1.124
Log fold change, probe 17103626 (GAGE12G//GAGE12F//GAGE12I//GAGE7//... GAGE family, Entrez 645073) (LA-N-1 xenografts; xenografts C4, C5, C7-C11 vs vehicle V5-V12, 10 mg/kg/day oral, adjusted P 0.39648602): 1.489
Log fold change, probe 17103647 (GAGE2A//GAGE2C//GAGE2B//GAGE2D//... GAGE family, Entrez 729447) (LA-N-1 xenografts; xenografts C4, C5, C7-C11 vs vehicle V5-V12, 10 mg/kg/day oral, adjusted P 0.4625512): 1.341
Log fold change, probe 17103679 (GAGE2A//GAGE2C//GAGE12G//GAGE12F//... GAGE family, Entrez 729447) (LA-N-1 xenografts; xenografts C4, C5, C7-C11 vs vehicle V5-V12, 10 mg/kg/day oral, adjusted P 0.47520907): 1.318
Log fold change, probe 17103614 (GAGE12J//GAGE2D//GAGE2E//GAGE8//... GAGE family, Entrez 729396) (LA-N-1 xenografts; [11]): 1.191
Log fold change, probe 17103620 (GAGE13//GAGE12D//GAGE12E//GAGE12B//... GAGE family, Entrez 645051) (LA-N-1 xenografts; [11]): 1.314
Log fold change, probe 17103653 (GAGE12C//GAGE12D//GAGE12E//GAGE12G//... GAGE family, Entrez 729422) (LA-N-1 xenografts; [11]): 1.354
Log fold change, probe 17103655 (GAGE12C//GAGE12D//GAGE12E//GAGE12H//... GAGE family, Entrez 729422) (LA-N-1 xenografts; [11]): 1.313
Log fold change, probe 17103673 (GAGE12G//GAGE12C//... GAGE family, Entrez 645073) (LA-N-1 xenografts; [11]): 1.257
Log fold change, probe 17103690 (GAGE12H//GAGE12C//GAGE12D//GAGE12E//... GAGE family, Entrez 729442) (LA-N-1 xenografts; [11]): 1.261
Log fold change, probe 16920617 (CTCFL) (LA-N-1 xenografts; [12]): 1.137
Log fold change, probe 17104821 (CXorf49//CXorf49B) (LA-N-1 xenografts; [12]): 1.423
Log fold change, murine probe 17395227 (Gm14399) ([1]; Mus musculus genes in xenograft RNAs, Cinacalcet vs vehicle, adjusted P 0.60678117): 1.067
Log fold change, murine probe 17262250 (Tgtp2//Tgtp1) ([1]; Mus musculus genes in xenograft RNAs, Cinacalcet vs vehicle, adjusted P 0.80676117): 1.108
Log fold change, murine probe 17302054 (Snora31) [1, 13]: 1.105
Log fold change, murine probe 17352957 (Dsc1) [1, 13]: 1.033
Log fold change, murine probe 17380529 (Gm14419//Gm14391//Gm6710) [1, 13]: 1.033
Log fold change, murine probe 17386477 (Gm11084) [1, 13]: 1.567
Log fold change, murine probe 17458439 (Gpnmb) [1, 13]: 1.221
Log fold change, murine probe 17483098 (Gdpd3) [1, 13]: 1.309
Log fold change, murine probe 17503825 (Mmp2) [1, 13]: 1.046
Log fold change, murine probe 17546762 (LOC101055644//Mid1//MID1) [1, 13]: 1.088
Log fold change, murine probe 17546774 (Erdr1//Dock9) [1, 13]: 1.341
Upregulation of CTAs in normal surrounding (murine) tissues ([1]; murine microarray, also when C9-C11 analyzed, no gene significant (adjusted P-value >0.05)): CTAs were not amongst the over-expressed genes
CTCFL mRNA fold increase (LA-N-1): 1.2 fold
MAGEA2 mRNA fold increase (LA-N-1): 2.9 fold
MAGEA3 mRNA fold increase (LA-N-1): 1.4 fold
NFL mRNA fold increase (LA-N-1): ns
NTRK1 mRNA fold increase (LA-N-1): 3.2 fold
NTRK3 mRNA fold increase (LA-N-1): 2.4 fold
S100-β mRNA fold increase (LA-N-1): 6.9 fold
SSX4/4B mRNA fold increase (LA-N-1): 3.8 fold
TUBB3 mRNA fold increase (LA-N-1): ns
GAGE-P1 mRNA fold increase (LA-N-1; primer pair GAGE P1): 2.7 fold
GAGE-P2 mRNA fold increase (LA-N-1; primer pair GAGE P2): 7.6 fold
GAGE-P3 mRNA fold increase (LA-N-1; primer pair GAGE P3): 5.1 fold
